From patent publication US8119681B2, “2-[1-phenyl-5-hydroxy or methoxy-4alpha-methyl-hexahydrocyclopenta [ƒ]indazole-5-YL]ethyl phenyl derivatives as glucocorticoid receptor ligands” (Merck Sharp & Dohme Corp., priority 2006, dated 2012) come the findings set out here.

The assay addresses T1, human GR (Homo sapiens, UniProt P04150).
T1 sequence (P04150 1-777): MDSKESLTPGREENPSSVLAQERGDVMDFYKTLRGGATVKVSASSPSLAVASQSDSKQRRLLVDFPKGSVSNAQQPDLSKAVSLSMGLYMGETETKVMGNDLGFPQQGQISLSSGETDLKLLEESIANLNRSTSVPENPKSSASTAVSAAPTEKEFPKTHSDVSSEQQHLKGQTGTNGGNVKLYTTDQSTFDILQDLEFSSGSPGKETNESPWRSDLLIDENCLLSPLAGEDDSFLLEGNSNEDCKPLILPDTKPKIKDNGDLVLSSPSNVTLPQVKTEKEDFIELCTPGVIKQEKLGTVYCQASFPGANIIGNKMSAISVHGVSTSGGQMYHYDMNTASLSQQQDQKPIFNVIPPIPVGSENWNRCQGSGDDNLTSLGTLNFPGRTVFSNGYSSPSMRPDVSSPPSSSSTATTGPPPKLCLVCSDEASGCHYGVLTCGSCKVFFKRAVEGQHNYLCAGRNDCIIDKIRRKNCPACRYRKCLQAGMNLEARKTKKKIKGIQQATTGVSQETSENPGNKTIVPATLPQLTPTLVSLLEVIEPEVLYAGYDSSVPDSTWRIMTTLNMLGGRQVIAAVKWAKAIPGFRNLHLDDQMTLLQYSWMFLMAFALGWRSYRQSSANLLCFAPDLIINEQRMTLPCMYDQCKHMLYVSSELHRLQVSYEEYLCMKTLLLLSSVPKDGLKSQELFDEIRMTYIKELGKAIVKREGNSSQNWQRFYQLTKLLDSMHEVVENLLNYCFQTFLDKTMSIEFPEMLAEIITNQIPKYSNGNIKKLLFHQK
In words: Transrepression Assay (GITAR), TNFα-β-lactamase reporter gene in U937 cells. Also on record: U937 cells contain an endogenous glucocorticoid receptor (GR); endogenous in cells; host or cells: U937 cells stably transfected with the TNF-α promoter/β-lactamase reporter only. The format is cell-based. The settings on record: for EC50: IP = inflection point; for GITAR > GRAMM % SEP: separation of GITAR Emax over GRAMMER Emax; for Emax: U-937. The essentials: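 Reporter readout used CCF2-AM loading for 70–90 min at room temperature after overnight (~18 h, 37 °C) PMA (5 ng/ml final) and LPS (100 ng/ml final) stimulation of compound-treated (30–45 min) TNFα-β-lactamase U937 cells expressing native GR. Activity was normalised to 100 nM dexamethasone repression.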

The mark [1] stands for this setting: Table 1, U937 cells, read-out: Transrepression U937 Cells GITAR IP.
Setting [2] is: 100 nM dexamethasone = 100% activity, read-out: maximal activity in the transrepression assay.
[3] abbreviates: Table 1, U937 cells, activity repressed by 100 nM dexamethasone = 100%, read-out: Transrepression U937 Cells GITAR Emax (%).
[4] abbreviates: Table 2, U937 cells, read-out: Transactiviation U937 Cells GITAR IP.
The mark [5] stands for this setting: Table 2, U937 cells, activity repressed by 100 nM dexamethasone = 100%, read-out: Transactiviation U937 Cells GITAR Emax (%).

Where two headings read alike, the source gives them in different places.

For the compound `CC(O)(C(N)=O)c1ccccc1CC[C@]1(O)CCC2=Cc3c(cnn3-c3ccc(F)cc3)C[C@@]21C` (single isomer, unassigned) [Example 150], under setting [1], the EC50 was 210 nM. Also, where the note is “Table 1”, the “GITAR > GRAMM % SEP” value is 29%. In addition, the Emax under setting [2] lay in the range of 5 to 100% and the Emax under setting [3] stood at 67%.

With `CC(C(N)=O)c1ccccc1CC[C@]1(O)CCC2=Cc3c(cnn3-c3ccc(F)cc3)C[C@@]21C` (single isomer, unassigned) [Example 196], the EC50 under setting [1] came to 287 nM. Besides, for the setting “Table 1”, the “GITAR > GRAMM % SEP” value is 20%. For the same compound, the Emax reads like this: under setting [2], 5 to 100%; under setting [3], 40%.

Regarding `C[C@]12Cc3cnn(-c4ccc(F)cc4)c3C=C1CC[C@@]2(O)CCc1ccccc1C(F)C(N)=O` (single isomer, unassigned) [Example 198], the EC50 under setting [1] was found to be 197 nM. Where the note is “Table 1”, the “GITAR > GRAMM % SEP” value is recorded as 23%. Besides, the Emax reads like this: under setting [2], 5 to 100%; under setting [3], 52%.

Take `C[C@]12Cc3cnn(-c4ccc(F)cc4)c3C=C1CC[C@@]2(O)CCc1ccccc1` [Example 2 WO 2004/075840 A2, reference compound]: the EC50 under setting [4] is 204 nM. For the same compound, the “GITAR > GRAMM % SEP” value (Table 2) stood at 5%. Besides, under setting [5], the Emax amounted to 78%.

On to `CCNC(=O)c1ccccc1CC[C@]1(O)CCC2=Cc3c(cnn3-c3ccc(F)cc3)C[C@@]21C` [Example 2, N-ethyl-2-{2-[(4αS,5R)-1-(4-fluorophenyl)-5-hydroxy-4α-methyl-1,4,4α,5,6,7-hexahydrocyclopenta[f]indazol-5-yl]ethyl}benzamide], for which, under setting [1], the EC50 stood at 88 nM. Also, the “GITAR > GRAMM % SEP” value (Table 1) is listed as 14%. Moreover, the Emax runs as follows: under setting [2], 5 to 100%; under setting [3], 65%.

As for `C[C@]12Cc3cnn(-c4ccc(F)cc4)c3C=C1CC[C@@]2(O)CCc1ccccc1CNS(=O)(=O)C1CC1` [Example 5, N-(2-{2-[(4αS,5R)-1-(4-fluorophenyl)-5-hydroxy-4α-methyl-1,4,4α,5,6,7-hexahydrocyclopenta[f]indazol-5-yl]ethyl}benzyl)cyclopropanesulfonamide], the EC50 under setting [1] is 179 nM. For the same compound, the Emax by setting is: under setting [2], 5 to 100%; under setting [3], 64%.

As for `C[C@]12Cc3cnn(-c4ccc(F)cc4)c3C=C1CC[C@@]2(O)CCc1ccccc1N1CCC1=O` [Example 11, 1-(2-{2-[(4αS,5R)-1-(4-fluorophenyl)-5-hydroxy-4α-methyl-1,4,4α,5,6,7-hexahydrocyclopenta[f]indazol-5-yl]ethyl}phenyl)azetidin-2-one], the EC50 under setting [1] was 208 nM. Also, the “GITAR > GRAMM % SEP” value (Table 1) turned out to be 17%. The Emax is 5 to 100% under setting [2] and 57% under setting [3].

Take `CC(=O)Nc1ccccc1CC[C@]1(O)CCC2=Cc3c(cnn3-c3ccc(F)cc3)C[C@@]21C` [Example 14, N-(2-{2-[(4αS,5R)-1-(4-fluorophenyl)-5-hydroxy-4α-methyl-1,4,4α,5,6,7-hexahydrocyclopenta[f]indazol-5-yl]ethyl}phenyl)acetamide]: the EC50 under setting [1] stood at 193 nM. Further, for the setting “Table 1”, the “GITAR > GRAMM % SEP” value is given as 23%. Also, the Emax was 5 to 100% under setting [2] and 79% under setting [3].

For the compound `C[C@]12Cc3cnn(-c4ccc(F)cc4)c3C=C1CC[C@@]2(O)CCc1ccccc1NS(=O)(=O)C1CC1` [Example 15, N-(2-{2-[(4αS,5R)-1-(4-fluorophenyl)-5-hydroxy-4α-methyl-1,4,4α,5,6,7-hexahydrocyclopenta[f]indazol-5-yl]ethyl}phenyl)cyclopropanesulfonamide], under setting [1], the EC50 is 242 nM. Further, the “GITAR > GRAMM % SEP” value (Table 1) amounted to 36%. Also, the Emax under setting [2] fell in the range of 5 to 100% and the Emax under setting [3] was 79%.

Regarding `C[C@]12Cc3cnn(-c4ccc(F)cc4)c3C=C1CC[C@@]2(O)CCc1ccccc1S(C)(=O)=O` [Example 19, (4αS,5R)-1-(4-fluorophenyl)-4α-methyl-5-{2-[2-(methylsulfonyl)phenyl]ethyl}-1,4,4α,5,6,7-hexahydrocyclopenta[f]indazol-5-ol], under setting [1], the EC50 worked out at 187 nM. For the same compound, the “GITAR > GRAMM % SEP” value (Table 1) was 33%. For the same compound, the Emax runs as follows: under setting [2], 5 to 100%; under setting [3], 79%.

Take `C[C@]12Cc3cnn(-c4ccc(F)cc4)c3C=C1CCC[C@@H]2[C@@H](O)Cc1ccccc1` [Example 22 WO 03/086294 A2, reference compound]: under setting [4], the EC50 was 327 nM. Besides, the “GITAR > GRAMM % SEP” value (Table 2) is given as −14%. For the same compound, under setting [5], the Emax worked out at 71%.

For the compound `CNC(=O)Cc1ccccc1CC[C@]1(O)CCC2=Cc3c(cnn3-c3ccc(F)cc3)C[C@@]21C` [Example 23, 2-(2-{2-[(4αS,5R)-1-(4-fluorophenyl)-5-hydroxy-4α-methyl-1,4,4α,5,6,7-hexahydrocyclopenta[f]indazol-5-yl]ethyl}phenyl)-N-methylacetamide], the EC50 under setting [1] stood at 263 nM. In addition, the “GITAR > GRAMM % SEP” value (Table 1) is listed as 37%. The Emax is 5 to 100% under setting [2] and 73% under setting [3].

As to `COC(=O)C1(NC(=O)c2ccccc2CC[C@]2(O)CCC3=Cc4c(cnn4-c4ccc(F)cc4)C[C@@]32C)CC1` [Example 26, methyl 1-[(2-{2-[(4αS,5R)-1-(4-fluorophenyl)-5-hydroxy-4α-methyl-1,4,4α,5,6,7-hexahydrocyclopenta[f]indazol-5-yl]ethyl}benzoyl)amino]cyclopropanecarboxylate], the EC50 under setting [1] worked out at 123 nM. Besides, under “Table 1”, the “GITAR > GRAMM % SEP” value is reported as 15%. In addition, the Emax runs as follows: under setting [2], 5 to 100%; under setting [3], 39%.

On to `CC1(NC(=O)c2ccccc2CC[C@]2(O)CCC3=Cc4c(cnn4-c4ccc(F)cc4)C[C@@]32C)CC1` [Example 28, 2-{2-[(4αS,5R)-1-(4-fluorophenyl)-5-hydroxy-4α-methyl-1,4,4α,5,6,7-hexahydrocyclopenta[f]indazol-5-yl]ethyl}-N-(1-methylcyclopropyl)benzamide], for which the EC50 under setting [1] came out at 65 nM. Moreover, the “GITAR > GRAMM % SEP” value (Table 1) is recorded as 43%. In addition, the Emax under setting [2] lay in the range of 5 to 100% and the Emax under setting [3] came out at 72%.

As for `CC(C)CNC(=O)c1ccccc1CC[C@]1(O)CCC2=Cc3c(cnn3-c3ccc(F)cc3)C[C@@]21C` [Example 29, 2-{2-[(4αS,5R)-1-(4-fluorophenyl)-5-hydroxy-4α-methyl-1,4,4α,5,6,7-hexahydrocyclopenta[f]indazol-5-yl]ethyl}-N-isobutylbenzamide], under setting [1], the EC50 amounted to 190 nM. Further, the “GITAR > GRAMM % SEP” value (Table 1) is 37%. Also, the Emax is, setting by setting: under setting [2], 5 to 100%; under setting [3], 61%.

`CCCNC(=O)c1ccccc1CC[C@]1(O)CCC2=Cc3c(cnn3-c3ccc(F)cc3)C[C@@]21C` [Example 30, 2-{2-[(4αS,5R)-1-(4-fluorophenyl)-5-hydroxy-4α-methyl-1,4,4α,5,6,7-hexahydrocyclopenta[f]indazol-5-yl]ethyl}-N-propylbenzamide]: the EC50 under setting [1] stood at 127 nM. For the same compound, the “GITAR > GRAMM % SEP” value (Table 1) is reported as 21%. For the same compound, the Emax under setting [2] lay in the range of 5 to 100% and the Emax under setting [3] stood at 50%.

For the compound `CC(CNC(=O)c1ccccc1CC[C@]1(O)CCC2=Cc3c(cnn3-c3ccc(F)cc3)C[C@@]21C)C(F)(F)F` (stereo partly drawn) [Example 31, 2-{2-[(4αS,5R)-1-(4-fluorophenyl)-5-hydroxy-4α-methyl-1,4,4α,5,6,7-hexahydrocyclopenta[f]indazol-5-yl]ethyl}-N-(3,3,3-trifluoro-2-methylpropyl)benzamide], the EC50 under setting [1] was determined as 183 nM. Besides, the “GITAR > GRAMM % SEP” value (Table 1) turned out to be 39%. The Emax is, setting by setting: under setting [2], 5 to 100%; under setting [3], 48%.

Turning to `C=C(C)CNC(=O)c1ccccc1CC[C@]1(O)CCC2=Cc3c(cnn3-c3ccc(F)cc3)C[C@@]21C` [Example 32, 2-{2-[(4αS,5R)-1-(4-fluorophenyl)-5-hydroxy-4α-methyl-1,4,4α,5,6,7-hexahydrocyclopenta[f]indazol-5-yl]ethyl}-N-(2-methylprop-2-en-1-yl)benzamide], the EC50 under setting [1] worked out at 277 nM. For the same compound, the “GITAR > GRAMM % SEP” value (Table 1) was determined as 36%. The Emax runs as follows: under setting [2], 5 to 100%; under setting [3], 49%.
